From ChEMBL document CHEMBL1201862, “PubChem BioAssay data set” (2004)
Where a name gives a salt, the structure may show the parent alone. Activity calls are given as the source filed them.

Key:
[1] = viability of uninfected HEp-2 cells – cell-based, HTS, cytotoxicity control for RSV inhibitor project, dose response (AID 2410); type: functional; conditions: human respiratory syncytial virus
BJ [2] = assay: BJ-TERT fibroblast viability loss – cell-based, RAS-independent, luminescence, dose response (AID 1933); type: functional; conditions: Homo sapiens
[3] = DRD fibroblast viability loss – cell-based, non-viral oncogenic, luminescence, dose response (AID 1934); type: functional; conditions: Homo sapiens
cells [4] = assay: cells
BJ [5] = assay: cells; type: functional, cell-based; conditions: Homo sapiens
Vero [6] = assay: cells; type: functional, cell-based; conditions: Chlorocebus sabaeus
Vero [7] = assay: cells; type: functional; conditions: Chlorocebus sabaeus
BJ [8] = assay: BJ-TERT-LT-ST fibroblast viability loss – cell-based, RAS-independent, luminescence, dose response (AID 1935); type: functional; conditions: Homo sapiens;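 also: BJ fibroblasts immortalized with TERT plus LT and ST oncogenes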
[9] = target: Peroxisome proliferator-activated receptor gamma/Nuclear receptor coactivator 2 (Homo sapiens, UniProt P37231); assay: (§1) TR-FRET dose response biochemical High Throughput Screening assay for agonists of the steroid receptor coactivator 2 (SRC-2) recruitment by the peroxisome proliferator-activated receptor gamma (PPAR gamma): non-selective agonists. [Related pubchem assays: 1297, 1032 ]; type: functional
Peroxisome proliferator-activated receptor gamma/Nuclear receptor coactivator 2, sequence (P37231 whole entry): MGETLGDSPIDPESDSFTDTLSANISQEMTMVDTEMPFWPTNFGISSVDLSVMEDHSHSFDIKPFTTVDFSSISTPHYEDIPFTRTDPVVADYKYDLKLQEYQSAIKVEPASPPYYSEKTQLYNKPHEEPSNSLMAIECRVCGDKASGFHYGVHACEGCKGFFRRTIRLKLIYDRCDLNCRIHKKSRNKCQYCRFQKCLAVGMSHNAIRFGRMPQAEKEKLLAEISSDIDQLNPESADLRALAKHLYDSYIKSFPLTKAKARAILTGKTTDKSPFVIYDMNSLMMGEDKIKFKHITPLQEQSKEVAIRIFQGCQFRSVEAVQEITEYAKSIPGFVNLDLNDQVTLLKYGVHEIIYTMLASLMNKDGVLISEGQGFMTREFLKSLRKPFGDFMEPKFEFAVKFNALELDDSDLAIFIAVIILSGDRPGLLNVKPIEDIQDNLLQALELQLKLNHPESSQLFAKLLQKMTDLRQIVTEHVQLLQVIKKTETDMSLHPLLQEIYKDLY
Peroxisome proliferator-activated receptor gamma/Nuclear receptor coactivator 2, sequence (Q15596 whole entry, further chain): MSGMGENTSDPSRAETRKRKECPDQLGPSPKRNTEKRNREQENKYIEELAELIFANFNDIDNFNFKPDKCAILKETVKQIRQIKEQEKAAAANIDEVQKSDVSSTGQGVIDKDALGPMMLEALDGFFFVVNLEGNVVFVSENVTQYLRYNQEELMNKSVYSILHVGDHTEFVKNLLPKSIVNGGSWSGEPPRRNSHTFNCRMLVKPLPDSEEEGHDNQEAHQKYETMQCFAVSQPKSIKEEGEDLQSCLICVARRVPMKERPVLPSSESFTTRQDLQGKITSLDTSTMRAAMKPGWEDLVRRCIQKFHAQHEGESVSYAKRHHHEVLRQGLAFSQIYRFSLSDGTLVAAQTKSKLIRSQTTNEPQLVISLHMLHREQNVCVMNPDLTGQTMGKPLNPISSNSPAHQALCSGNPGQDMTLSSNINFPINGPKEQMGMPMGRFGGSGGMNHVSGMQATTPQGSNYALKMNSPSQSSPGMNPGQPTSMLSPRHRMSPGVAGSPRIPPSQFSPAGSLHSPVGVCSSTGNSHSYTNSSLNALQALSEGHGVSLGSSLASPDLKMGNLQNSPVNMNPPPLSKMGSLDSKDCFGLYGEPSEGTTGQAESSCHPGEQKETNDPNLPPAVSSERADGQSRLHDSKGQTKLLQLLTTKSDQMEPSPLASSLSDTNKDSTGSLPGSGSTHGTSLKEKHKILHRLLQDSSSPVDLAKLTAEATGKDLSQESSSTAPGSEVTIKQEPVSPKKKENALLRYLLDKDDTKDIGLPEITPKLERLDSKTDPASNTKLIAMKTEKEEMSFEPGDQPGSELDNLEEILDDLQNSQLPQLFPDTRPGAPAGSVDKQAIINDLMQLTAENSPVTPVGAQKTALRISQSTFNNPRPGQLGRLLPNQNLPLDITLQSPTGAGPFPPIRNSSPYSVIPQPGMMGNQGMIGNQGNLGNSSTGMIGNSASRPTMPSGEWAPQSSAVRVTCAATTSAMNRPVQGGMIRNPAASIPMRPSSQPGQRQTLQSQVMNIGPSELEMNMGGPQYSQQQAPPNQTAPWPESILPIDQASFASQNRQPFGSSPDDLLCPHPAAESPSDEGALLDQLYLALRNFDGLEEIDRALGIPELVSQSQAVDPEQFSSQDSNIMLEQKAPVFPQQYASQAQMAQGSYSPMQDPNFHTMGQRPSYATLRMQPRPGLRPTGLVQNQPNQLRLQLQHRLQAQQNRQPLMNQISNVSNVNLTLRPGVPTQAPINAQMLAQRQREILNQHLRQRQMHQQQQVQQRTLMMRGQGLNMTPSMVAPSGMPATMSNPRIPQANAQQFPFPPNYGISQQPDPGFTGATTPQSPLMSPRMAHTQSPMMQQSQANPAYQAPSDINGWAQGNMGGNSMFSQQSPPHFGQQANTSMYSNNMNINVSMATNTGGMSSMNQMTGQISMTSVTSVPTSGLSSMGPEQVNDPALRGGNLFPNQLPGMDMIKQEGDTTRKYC

[10] = target: Peroxisome proliferator-activated receptor gamma/Nuclear receptor coactivator 1 (Homo sapiens, UniProt P37231); assay: as §1, with “1 (SRC-1)” for “2 (SRC-2)”, “assays (depositor defined):AID1300, AID1808, AID504735, AID631]” for “assays: 1297, 1032 ]”; type: protein assay
[11] = target: Peroxisome proliferator-activated receptor gamma/Nuclear receptor coactivator 3 (Homo sapiens, UniProt P37231); assay: as §1, with “3 (SRC-3)” for “2 (SRC-2)”, “1301 (Confirmation screen.), 1048 (Primary screen.)]” for “1297, 1032 ]”; type: functional
Peroxisome proliferator-activated receptor gamma/Nuclear receptor coactivator 3, sequence (P37231 whole entry): as the sequence (P37231 whole entry) above
Peroxisome proliferator-activated receptor gamma/Nuclear receptor coactivator 3, sequence (Q9Y6Q9 whole entry, further chain): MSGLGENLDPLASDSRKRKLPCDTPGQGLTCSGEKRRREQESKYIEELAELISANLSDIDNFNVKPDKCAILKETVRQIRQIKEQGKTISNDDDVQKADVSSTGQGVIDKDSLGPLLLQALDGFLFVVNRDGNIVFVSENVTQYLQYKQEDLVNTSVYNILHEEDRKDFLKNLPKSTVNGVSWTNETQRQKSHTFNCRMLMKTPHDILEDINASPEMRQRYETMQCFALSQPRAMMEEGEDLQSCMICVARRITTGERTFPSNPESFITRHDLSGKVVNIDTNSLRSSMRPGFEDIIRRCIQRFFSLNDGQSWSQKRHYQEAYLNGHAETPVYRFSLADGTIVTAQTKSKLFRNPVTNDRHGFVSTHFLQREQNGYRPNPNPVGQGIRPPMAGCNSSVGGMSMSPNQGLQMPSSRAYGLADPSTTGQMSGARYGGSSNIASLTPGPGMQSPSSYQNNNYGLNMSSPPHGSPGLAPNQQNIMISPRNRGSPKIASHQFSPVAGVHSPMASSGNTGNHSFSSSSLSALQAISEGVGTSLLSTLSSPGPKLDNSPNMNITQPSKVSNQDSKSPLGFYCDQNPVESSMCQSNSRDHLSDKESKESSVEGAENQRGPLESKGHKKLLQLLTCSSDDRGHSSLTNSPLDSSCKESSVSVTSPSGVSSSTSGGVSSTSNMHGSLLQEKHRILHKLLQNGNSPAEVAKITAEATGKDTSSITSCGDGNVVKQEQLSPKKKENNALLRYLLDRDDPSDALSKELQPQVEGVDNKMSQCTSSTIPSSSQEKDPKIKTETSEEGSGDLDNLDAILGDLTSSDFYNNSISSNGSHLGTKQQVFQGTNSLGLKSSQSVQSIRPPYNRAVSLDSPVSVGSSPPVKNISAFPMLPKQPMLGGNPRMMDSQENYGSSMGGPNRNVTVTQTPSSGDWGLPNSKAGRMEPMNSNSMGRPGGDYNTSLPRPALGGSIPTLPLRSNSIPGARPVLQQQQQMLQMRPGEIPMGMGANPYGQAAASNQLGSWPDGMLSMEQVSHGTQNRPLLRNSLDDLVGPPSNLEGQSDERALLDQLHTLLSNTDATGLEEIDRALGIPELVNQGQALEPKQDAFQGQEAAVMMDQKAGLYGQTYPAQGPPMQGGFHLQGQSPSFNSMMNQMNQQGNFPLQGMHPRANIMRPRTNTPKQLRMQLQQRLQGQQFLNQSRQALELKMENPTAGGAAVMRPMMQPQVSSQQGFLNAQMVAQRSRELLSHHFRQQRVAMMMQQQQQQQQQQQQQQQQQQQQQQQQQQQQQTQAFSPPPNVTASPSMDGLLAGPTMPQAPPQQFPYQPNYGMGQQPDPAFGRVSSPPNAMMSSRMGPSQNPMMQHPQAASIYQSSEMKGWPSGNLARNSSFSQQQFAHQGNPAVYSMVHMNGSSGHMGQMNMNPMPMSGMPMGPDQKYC

[12] = HepG2 cell cytotoxicity, dose response, cytotoxicity control for non-replicating M. tuberculosis project (AID 489018); type: functional; conditions: Mycobacterium tuberculosis
[13] = viability of HCT116 lacking mutant beta-catenin – cell-based, human colon tumor, dose response (AID 1045); type: functional;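 also: HCT116 colon tumor cells with beta catenin knocked out; cells exposed to compound for 60 hours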
[14] = viability of PTEN-deleted HCT116 cells – cell-based, HCT116 PTEN knockout, dose response (AID 1047); type: functional;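 also: HCT116 colon tumor cells with PTEN knocked out; cells exposed to compound for 60 hours before readout; potency for loss of cell viability measured by luminescence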
cells [15] = type: functional
[16] = Vero E6 cell cytotoxicity, dose response, cytotoxicity control for non-replicating M. tuberculosis project, secondary assay (AID 492998); type: functional, VeroE6; conditions: Vero C1008
[17] = THP-1 cell cytotoxicity, dose response, cytotoxicity control for non-replicating M. tuberculosis project (AID 489025); type: functional
[18] = microbe, parasite or virus in culture; type: functional; conditions: Mycobacterium tuberculosis
[19] = target: T1, Short transient receptor potential channel 4 (Mus musculus, UniProt Q9QUQ5); assay: calcium entry via TRPC4 opening agents – cell-based, HEK293 TRPC4/mu-opioid, Fluo-4 calcium, dose response (AID 434937); type: functional
T1 sequence (Q9QUQ5 whole entry): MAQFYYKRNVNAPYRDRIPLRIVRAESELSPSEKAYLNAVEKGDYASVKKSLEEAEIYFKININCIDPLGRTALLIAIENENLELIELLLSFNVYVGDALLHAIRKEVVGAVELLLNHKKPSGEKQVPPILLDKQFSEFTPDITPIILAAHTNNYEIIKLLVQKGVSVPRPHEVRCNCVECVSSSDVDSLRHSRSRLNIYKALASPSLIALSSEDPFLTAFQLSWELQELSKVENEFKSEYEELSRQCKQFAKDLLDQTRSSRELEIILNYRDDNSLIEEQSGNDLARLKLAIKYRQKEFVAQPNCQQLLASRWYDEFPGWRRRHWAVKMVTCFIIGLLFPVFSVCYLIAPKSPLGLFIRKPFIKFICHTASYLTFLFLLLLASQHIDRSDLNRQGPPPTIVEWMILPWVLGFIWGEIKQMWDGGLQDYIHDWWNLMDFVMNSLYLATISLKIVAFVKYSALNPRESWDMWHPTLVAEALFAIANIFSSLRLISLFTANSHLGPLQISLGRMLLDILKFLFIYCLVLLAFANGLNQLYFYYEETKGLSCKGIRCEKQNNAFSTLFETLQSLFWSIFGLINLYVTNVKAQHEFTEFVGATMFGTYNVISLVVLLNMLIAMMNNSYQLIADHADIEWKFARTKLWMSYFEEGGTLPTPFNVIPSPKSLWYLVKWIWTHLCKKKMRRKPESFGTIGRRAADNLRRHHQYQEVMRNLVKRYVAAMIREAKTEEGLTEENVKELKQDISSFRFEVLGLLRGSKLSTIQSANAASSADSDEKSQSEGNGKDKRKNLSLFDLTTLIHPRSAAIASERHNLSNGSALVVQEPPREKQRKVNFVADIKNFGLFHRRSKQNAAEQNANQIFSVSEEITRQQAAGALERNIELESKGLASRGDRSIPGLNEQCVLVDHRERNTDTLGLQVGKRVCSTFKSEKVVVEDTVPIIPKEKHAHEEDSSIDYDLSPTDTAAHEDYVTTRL

[20] = target: Voltage-gated inwardly rectifying potassium channel KCNH2 (Homo sapiens, UniProt Q12809); conditions: Potency;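 also: confirmatory quantitative high-throughput screen measuring inhibition of hERG channel activity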
Voltage-gated inwardly rectifying potassium channel KCNH2, sequence (Q12809 whole entry): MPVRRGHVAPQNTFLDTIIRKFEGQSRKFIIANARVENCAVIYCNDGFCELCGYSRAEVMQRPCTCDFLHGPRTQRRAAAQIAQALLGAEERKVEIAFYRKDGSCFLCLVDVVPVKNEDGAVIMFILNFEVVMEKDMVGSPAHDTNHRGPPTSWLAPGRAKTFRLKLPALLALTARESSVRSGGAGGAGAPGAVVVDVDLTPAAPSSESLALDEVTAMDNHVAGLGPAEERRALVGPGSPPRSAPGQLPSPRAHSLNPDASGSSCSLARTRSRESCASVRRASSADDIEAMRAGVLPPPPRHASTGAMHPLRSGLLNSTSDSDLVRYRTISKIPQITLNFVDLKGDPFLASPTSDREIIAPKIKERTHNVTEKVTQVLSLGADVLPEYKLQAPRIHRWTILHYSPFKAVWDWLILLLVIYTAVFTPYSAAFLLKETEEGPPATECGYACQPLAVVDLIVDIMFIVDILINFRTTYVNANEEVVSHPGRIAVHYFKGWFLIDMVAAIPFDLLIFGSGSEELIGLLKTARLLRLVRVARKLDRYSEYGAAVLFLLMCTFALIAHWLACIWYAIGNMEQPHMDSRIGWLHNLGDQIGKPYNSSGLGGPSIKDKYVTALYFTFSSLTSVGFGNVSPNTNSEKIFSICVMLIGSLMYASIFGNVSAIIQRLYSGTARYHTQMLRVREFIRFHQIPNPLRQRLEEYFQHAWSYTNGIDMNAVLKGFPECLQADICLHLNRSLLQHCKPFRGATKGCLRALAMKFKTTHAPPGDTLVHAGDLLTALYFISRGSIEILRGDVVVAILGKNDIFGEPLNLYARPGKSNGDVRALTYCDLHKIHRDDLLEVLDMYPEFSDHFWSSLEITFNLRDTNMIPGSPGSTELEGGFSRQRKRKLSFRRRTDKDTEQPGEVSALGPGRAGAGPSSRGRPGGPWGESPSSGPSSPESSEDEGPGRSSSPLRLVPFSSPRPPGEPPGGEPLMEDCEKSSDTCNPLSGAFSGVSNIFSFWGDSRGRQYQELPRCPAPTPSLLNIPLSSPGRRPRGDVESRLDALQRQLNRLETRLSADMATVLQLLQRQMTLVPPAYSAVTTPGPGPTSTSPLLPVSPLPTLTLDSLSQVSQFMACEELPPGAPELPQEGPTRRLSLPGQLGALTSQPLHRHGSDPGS

Cytochrome P450 3A4 = Cytochrome P450 3A4 (Homo sapiens, UniProt P08684); conditions: Potency;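 also: confirmatory qHTS run detecting inhibitors and substrates of CYP3A4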
Cytochrome P450 2D6 = Cytochrome P450 2D6 (Homo sapiens, UniProt P10635);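 also: CYP2D6 member of a cytochrome P450 panel assay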
Cytochrome P450 1A2 = target: T2, Cytochrome P450 1A2 (Homo sapiens, UniProt P05177);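 also: PubChem cytochrome P450 panel assay, CYP1A2 panel member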
T2 sequence (P05177 whole entry): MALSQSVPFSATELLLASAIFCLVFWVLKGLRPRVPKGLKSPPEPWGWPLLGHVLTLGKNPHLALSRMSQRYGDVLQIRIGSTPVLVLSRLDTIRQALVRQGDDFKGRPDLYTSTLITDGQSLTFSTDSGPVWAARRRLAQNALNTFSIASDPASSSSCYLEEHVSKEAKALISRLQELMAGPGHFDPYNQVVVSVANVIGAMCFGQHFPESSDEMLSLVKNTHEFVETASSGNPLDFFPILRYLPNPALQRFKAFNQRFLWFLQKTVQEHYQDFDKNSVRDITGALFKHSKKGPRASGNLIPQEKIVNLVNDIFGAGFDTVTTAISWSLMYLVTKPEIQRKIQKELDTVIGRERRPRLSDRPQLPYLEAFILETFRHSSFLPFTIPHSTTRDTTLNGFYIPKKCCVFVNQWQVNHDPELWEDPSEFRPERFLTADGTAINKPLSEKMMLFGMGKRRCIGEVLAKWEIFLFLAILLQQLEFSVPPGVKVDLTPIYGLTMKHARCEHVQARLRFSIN

[21] = target: FAD-linked sulfhydryl oxidase ALR (Homo sapiens, UniProt P55789); assay: ALR-catalysed DTT oxidation blockers – biochemical, H2O2 detection, luminescence, cherry-pick, dose response (AID 493248)
[22] = HPDE-C7 pancreatic duct cell viability loss – fluorescence, HTS (AID 430); type: functional, cell-based; conditions: Homo sapiens
[23] = viability loss of HPDE-C7K cells – cell-based, fluorescence, HTS, primary screen (AID 431); type: functional; conditions: Homo sapiens
[24] = fluconazole-exposed Candida albicans growth modulators – fluorescence, retest, confirmation (AID 2467); type: functional, cell-based
[25] = target: T3, Serine/threonine-protein phosphatase (Candida dubliniensis (strain CD36 / CBS 7987 / NCPF 3949 / NRRLY-17841) (Yeast), UniProt B9W6M3); assay: blockers of CaCl2-induced CDRE-lacZ signaling – S. cerevisiae, luminescence, secondary, dose response (AID 2388); type: functional, cell-based;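 also: yeast reporter cells carrying a calcineurin-responsive lacZ construct stimulated with calcium chloride; luminescent beta-galactosidase reporter signal in whole cells rather than isolated phosphatase activity; potency for inhibition where a drop in reporter signal means calcineurin blockade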
T3 sequence (B9W6M3 whole entry): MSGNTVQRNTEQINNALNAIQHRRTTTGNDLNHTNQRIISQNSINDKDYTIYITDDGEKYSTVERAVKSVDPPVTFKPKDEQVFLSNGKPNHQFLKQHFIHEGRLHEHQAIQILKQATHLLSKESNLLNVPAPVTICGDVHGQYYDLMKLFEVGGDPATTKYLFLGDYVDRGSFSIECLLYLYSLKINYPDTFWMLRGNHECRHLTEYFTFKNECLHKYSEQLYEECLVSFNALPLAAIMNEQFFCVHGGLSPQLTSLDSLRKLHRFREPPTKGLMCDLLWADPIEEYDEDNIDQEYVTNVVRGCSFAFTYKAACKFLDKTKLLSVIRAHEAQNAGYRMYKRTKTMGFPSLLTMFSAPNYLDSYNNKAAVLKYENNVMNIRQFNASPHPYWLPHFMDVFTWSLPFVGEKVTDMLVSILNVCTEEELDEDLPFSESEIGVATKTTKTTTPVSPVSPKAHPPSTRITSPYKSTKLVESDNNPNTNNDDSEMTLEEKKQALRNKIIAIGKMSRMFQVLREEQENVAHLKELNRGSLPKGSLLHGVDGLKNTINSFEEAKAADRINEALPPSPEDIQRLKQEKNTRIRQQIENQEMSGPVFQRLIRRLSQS

[26] = target: ATP-dependent molecular chaperone HSP82 (Candida albicans (strain WO-1) (Yeast), UniProt C4YTQ8); assay: steroid-induced GRE reporter decrease in yeast – S. cerevisiae, luminescence, Hsp90 inhibitor project, dose response (AID 2400); type: functional, cell-based;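 also: beta-galactosidase luminescence from glucocorticoid response element reporter as proxy for Hsp90 function; inhibitor potency where signal loss means Hsp90 inhibition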
[27] = NIH-3T3 fibroblast cytotoxicity, dose response, cytotoxicity control, cell-based, fluorescence, Alamar Blue, secondary assay (AID 2327); type: functional;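 also: NIH-3T3 mouse fibroblasts cultured with fluconazole at 8 µg/mL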
[28] = MIN6 cell viability loss – mouse insulinoma, cytotoxicity control, dose response (AID 2122); type: functional;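 also: confirmatory high-throughput counterscreen run to flag cytotoxic compounds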
[29] = decrease of insulin promoter-GFP reporter – imaging, high-content screening, mouse beta cells (AID 1628); type: functional; conditions: MIN6

## Cc1cccc(-n2c(SCC(=O)Nc3ncc(Cl)cc3Cl)nc3ccccc32)c1
[1]
  CC50: 2.36 µM (active)
BJ [2]
  EC50: 33.7 µM (active)
[3]
  EC50: 94.2 µM (active)
Cells [4]
  IC50: 1.26 µM (active)
BJ [5]
  EC50: 50.5 µM (inconclusive)
Vero [6]
  IC50: 0.56 µM (active)
Vero [7]
  CC50: > 25 µM (active)
BJ [8]
  EC50: > 150 µM (not active)

## O=C(c1cc2c(s1)-c1ccccc1OC2)N1CCN(c2ccccn2)CC1
[9]
  EC50: 23.2 µM (not active)
[10]
  EC50: 33.7 µM (inactive)
[11]
  EC50: > 79.4 µM (not active)

## COc1ccccc1-c1cc(C(=O)N/N=C/c2cccs2)c2ccccc2n1
[1]
  CC50: 24.7 µM (active)
Vero [6]
  IC50: 18.9 µM (active)
Vero [7]
  CC50: > 25 µM (active)

## Clc1cccc2c1Sc1ccccc1CC2N1CCNCC1 (stereo not given)
[12]
  CC50: 7.37 µM (active)
[13]
  EC50: 7.41 µM (active)
[14]
  EC50: 7.22 µM (active)
Cells [15]
  IC50: 11.5 µM (active)
[16]
  CC50: 9.77 µM (active)
[17]
  CC50: 8.49 µM (active)

## O=C(CCC1CCCC1)c1c(O)c2ccccc2oc1=O
[12]
  CC50: > 20 µM (active)
Cells [15]
  IC50: 8.45 µM (active)
[16]
  CC50: 14.4 µM (active)
[17]
  CC50: 23.5 µM (active)
[18]
  CC50: 15.4 µM (active)
[19]
  EC50: 5.96 µM (active)

## O=C(c1ccc2c(c1)N(Cc1cccc(Cl)c1)C(=O)c1ccccc1S2(=O)=O)N1CCN(c2ccccn2)CC1
Vero [6]
  IC50: 10.1 µM (active)
Vero [7]
  CC50: > 25 µM (active)

## CC1(C)CCC2=C(O1)c1ccccc1C(=O)C2=O [LAPACHONE]
[20]
  AC50: 15.8 µM (inconclusive)

## Clc1ccc(Cl)c(-c2ccc(/C=N/c3nc[nH]n3)o2)c1
[9]
  EC50: 12.6 µM (not active)
[10]
  EC50: 13.7 µM (inactive)
[11]
  EC50: > 79.4 µM (not active)

## CN(C)c1ccc(C2(c3ccc(N(C)C)cc3)OC(=O)c3cc(N(C)C)ccc32)cc1
[20]
  AC50: 0.251 µM (inconclusive)
Cytochrome P450 3A4
  AC50: 7.94 µM (inconclusive)

## NNC(=O)c1ccncc1 [ISONIAZID]
[20]
  AC50: 35.5 µM (inconclusive)
Cytochrome P450 2D6
  AC50: 12.6 µM (inconclusive)
Cytochrome P450 1A2
  AC50: 6.31 µM (inconclusive)

## CCCN1C(=O)c2ccccc2NC1c1ccc(OC)cc1O (stereo not given)
Vero [6]
  IC50: 24.1 µM (active)
[21]
  AC50: 12.2 µM (active)

## O=c1oc(-c2ccccc2F)nc2c1cnn2-c1ccccc1
[9]
  EC50: > 79.4 µM (not active)
[10]
  EC50: > 79.4 µM (inactive)
[11]
  EC50: > 79.4 µM (not active)

## O=C(CSc1ncnc2c1oc1ccccc12)OCc1ccccc1
[9]
  EC50: > 8.82 µM (not active)
[10]
  EC50: > 2.94 µM (inactive)
[11]
  EC50: > 79.4 µM (not active)

## CC(CN1c2ccccc2Sc2ccccc21)N(C)C (stereo not given) [PROMETHAZINE HYDROCHLORIDE]
[22]
  EC50: > 20 µM (not active)
[20]
  AC50: 15.8 µM (inconclusive)
[21]
  AC50: 0.367 µM (active)
[23]
  EC50: > 20 µM (not active)

## O=C(Nc1nnc(-c2ccco2)o1)c1cccc(Cl)c1
[24]
  EC50: 1.33 µM (active)
[25]
  EC50: > 180 µM (inactive)
[26]
  EC50: > 150 µM (inactive)
[27]
  EC50: > 150 µM (inactive)

## CN1CCN(c2ccccc2NC(=O)c2cccc(OCc3ccccc3)c2)CC1
[28]
  IC50: 4.17 µM (active)
[29]
  IC50: 4.3 µM (active)
